Source: ChEMBL document CHEMBL6083280, “De Novo Discovery of a Noncovalent Cell-Penetrating Bicyclic Peptide Inhibitor Targeting SARS-CoV-2 Main Protease” (J Med Chem, 2024)
Calls of active or inactive are those of the source. No cut-off for these calls is given here. Positions of bridges follow the written chain, without caps; N, C: chain ends. Residues, ends and D or L forms follow the SMILES beside them.

Columns and labels:
[1] = tested on: Caco-2; assay: (§1) Cytotoxicity against human Caco-2 cells assessed as cell viability at 100 uM incubated for 48 hrs by CCK-8 assay; type: toxicity, cell-based; conditions: caco-2, 48 h, 100 µM
[2] = tested on: SARS-CoV-2; assay: Antiviral activity against SARS-CoV-2; type: functional, organism-based; conditions: Severe acute respiratory syndrome coronavirus 2
[3] = target: T1, Replicase polyprotein 1ab (Severe acute respiratory syndrome coronavirus 2, UniProt P0DTD1); assay: Inhibition of N-terminal his-tagged SARS-CoV-2 Main protease expressed in Escherichia coli BL21 (DE3) using Dabcyl-TSAVLWSGFRICMK-Edans as substrate preincubated for 10 mins by microplate reader analysis
[4] = target: T1, Replicase polyprotein 1ab; assay: Binding affinity to N-terminal his-tagged SARS-CoV-2 Main protease expressed in Escherichia coli BL21 (DE3) assessed as dissociation constant by ITC analysis
[5] = tested on: SARS-CoV-2; assay: Antiviral activity against SARS-CoV-2 infected in human Caco-2 cells assessed as inhibition of viral infection preincubated for 1 hr followed by viral infection measured after 48 hrs by CQ1 confocal quantitative image cytometer analysis; type: functional, organism-based; conditions: for EC50: Severe acute respiratory syndrome coronavirus 2, Caco-2; for Activity: Severe acute respiratory syndrome coronavirus 2, time 49.0 hrs
[6] = as §1; type: toxicity, cell-based; conditions: Caco-2 cells
[7] = Metabolic stability in mouse serum assessed as half life by HPLC analysis; type: ADME, cell-free
[8] = target: Cathepsin B (Homo sapiens) (UniProt P07858); assay: Inhibition of cathepsin B (unknown origin)
[9] = target: Ubiquitin carboxyl-terminal hydrolase 14 (Homo sapiens) (UniProt P54578); assay: Inhibition of USP14 (unknown origin)
[10] = tested on: SARS-CoV-2; assay: Antiviral activity against SARS-CoV-2 Omicron; type: functional, organism-based; conditions: Severe acute respiratory syndrome coronavirus 2, Omicron
[11] = Drug uptake in human Caco-2 cells at 5 uM measured after 3 hrs by live confocal microscopic analysis; type: ADME, cell-based; conditions: caco-2, 3 h
[12] = Drug uptake in human HeLa cells at 5 uM measured after 3 hrs by live confocal microscopic analysis; type: ADME, cell-based
[13] = Half life in male CD-1 mouse at 4 mg/kg, iv by LC-MS/MS analysis; type: ADME, organism-based; conditions: in vivo
[14] = Initial plasma concentration in male CD-1 mouse at 4 mg/kg, iv by LC-MS/MS analysis; type: ADME, organism-based
[15] = AUC (0 to infinity) in male CD-1 mouse at 4 mg/kg, iv by LC-MS/MS analysis; type: ADME, organism-based; conditions: in vivo
[16] = Clearance in male CD-1 mouse at 4 mg/kg, iv by LC-MS/MS analysis; type: ADME, organism-based; conditions: in vivo
[17] = Volume of distribution at steady state in male CD-1 mouse at 4 mg/kg, iv by LC-MS/MS analysis; type: ADME, organism-based; conditions: in vivo, read-out: Vdss

Chain of Ubiquitin carboxyl-terminal hydrolase 14 (Homo sapiens) (P54578 whole entry): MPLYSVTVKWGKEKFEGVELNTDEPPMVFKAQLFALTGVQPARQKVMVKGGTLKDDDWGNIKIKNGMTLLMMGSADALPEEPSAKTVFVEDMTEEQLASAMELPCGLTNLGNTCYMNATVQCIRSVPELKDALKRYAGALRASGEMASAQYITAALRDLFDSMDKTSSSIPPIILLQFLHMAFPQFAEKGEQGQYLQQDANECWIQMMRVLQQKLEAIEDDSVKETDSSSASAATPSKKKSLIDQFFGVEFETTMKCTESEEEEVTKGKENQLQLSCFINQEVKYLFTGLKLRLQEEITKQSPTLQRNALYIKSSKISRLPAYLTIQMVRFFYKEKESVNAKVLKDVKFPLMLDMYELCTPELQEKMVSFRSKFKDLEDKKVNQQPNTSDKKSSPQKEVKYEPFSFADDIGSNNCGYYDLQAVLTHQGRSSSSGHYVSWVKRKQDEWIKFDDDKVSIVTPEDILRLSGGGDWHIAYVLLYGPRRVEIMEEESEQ

Cc1cccc(C)c1OCC(=O)N[C@@H](Cc1ccccc1)[C@@H](O)C[C@H](Cc1ccccc1)NC(=O)[C@H](C(C)C)N1CCCNC1=O [LOPINAVIR]
Activity [1]: Toxic
EC50 [2]: 8.75 µM

CC(C)C[C@@H]1NC(=O)[C@H](Cc2ccccc2)NC(=O)[C@@H]2CCCN2C(=O)[C@H]([C@@H](C)O)NC(=O)[C@H]([C@@H](C)O)NC(=O)[C@H]([C@@H](C)O)NC(=O)[C@H](Cc2c[nH]cn2)NC(=O)[C@H](Cc2ccccc2)NC(=O)[C@H]([C@@H](C)O)NC(=O)[C@H](C(C)C)NC(=O)[C@@H](Cc2ccc(O)cc2)NC(=O)CSC[C@@H](C(=O)NCC(N)=O)NC(=O)[C@@H]2CCCN2C(=O)[C@@H]2CCCN2C1=O
IC50 [3]: 0.3 µM
Kd [4]: 2.75 µM
EC50 [5]: 10.8 µM
Activity [5]: inactive
CC50 at 48 h [6]: > 100 µM
half-life [7]: 5.4 h
inhibition [8]: Active
inhibition [9]: Active

Cn1cnc(Cn2c(=O)[nH]/c(=N\c3cc4cn(C)nc4cc3Cl)n(Cc3cc(F)c(F)cc3F)c2=O)n1
EC50 [10]: 0.22 µM

CC(C)C[C@@H]1NC(=O)[C@H](CC(N)=O)NC(=O)[C@H](Cc2ccc(O)cc2)NC(=O)CSC[C@@H](C(=O)NCC(N)=O)NC(=O)[C@H](Cc2ccc(O)cc2)NC(=O)[C@H](CCC(N)=O)NC(=O)[C@H]([C@@H](C)O)NC(=O)[C@H]([C@@H](C)O)NC(=O)[C@H](Cc2c[nH]c3ccccc23)NC(=O)[C@H](CC(=O)O)NC(=O)[C@H]([C@@H](C)O)NC(=O)[C@H](CCCNC(=N)N)NC(=O)[C@H](CCC(N)=O)NC(=O)[C@H](Cc2ccccc2)NC1=O ({CH2CO}-YNLFQRTDWTTQYCG-NH2; thioether N-14)
IC50 [3]: 0.5 µM
Kd [4]: 1.12 µM
EC50 [5]: 4.89 µM
Activity [5]: inactive
CC50 at 48 h [6]: > 100 µM
half-life [7]: 1.6 h

CC(C)[C@@H]1NC(=O)[C@@H](Cc2ccc(O)cc2)NC(=O)CC[C@@H](C(N)=O)NC(=O)[C@@H]2CCCN2C(=O)[C@@H]2CCCN2C(=O)C2CSc3c(F)c(F)c(c(F)c3F)-c3c(F)c(F)c(c(F)c3F)SC[C@H](NC1=O)C(=O)N[C@@H](Cc1ccccc1)C(=O)N[C@@H](Cc1c[nH]cn1)C(=O)N[C@@H]([C@@H](C)O)C(=O)N[C@@H]([C@@H](C)O)C(=O)N[C@@H]([C@@H](C)O)C(=O)N1CCC[C@H]1C(=O)N[C@@H](Cc1ccccc1)C(=O)N2
IC50 [3]: 4.51 µM
EC50 [5]: 8.62 µM
Activity [1]: Non-toxic
half-life [7]: 8 h
Drug uptake [11]: Active
Drug uptake [12]: Active
half-life [13]: 0.499 h
C0 [14]: 12100 ng/mL
AUC(0-inf) [15]: 2530 ng·h/mL
clearance [16]: 26.5 mL/min/kg
Vd [17]: 0.511 L/kg
